Experimental data taken from patent US20230248718A1, “PHARMACEUTICAL COMBINATION OF ANTISPASMODIC AND ANXIOLYTIC AGENT” (priority 2022, published 2023).
Counter-ions that a name gives are not always drawn.

Assays:
[1] = cited from earlier work
[2] = oral, 80 mg strength IR tablets; cited from earlier work
[3] = Procedure: Therefore, drug-interaction studies were undertaken by the inventors and the samples were evaluated for chemical stability.
[4] = cited from earlier work; remark: listed apart in the source

Compound: CCOc1ccc(/C=C2\NCCc3cc(OCC)c(OCC)cc32)cc1OCC [Drotaverine]
- oral LD50 [1]: > 1000 mg/Kg body weight
- drug absorption from small intestine [2]: ~90%

Compound: CCOc1ccc(/C=C2\NCCc3cc(OCC)c(OCC)cc32)cc1OCC [Drotaverine HCl, Drotaverine hydrochloride]
- chemical stability / degradation in acidic environment [3]: best chemical stability
- degradation in basic conditions [3]: degrades significantly
- degradation in oxidative conditions / peroxide solution [3]: degrades significantly

Compound: CNC1=Nc2ccc(Cl)cc2C(c2ccccc2)=[N+]([O-])C1.Cl [Chlordiazepoxide HCl, Chlordiazepoxide hydrochloride]
- plasma levels after administration is discontinued ([4]; after discontinuation): decline slowly over a period of several days
- half-life ([4]; in vivo): 24 to 48 h
- time for peak blood levels to be reached ([4]; in vivo): several hours
